≈ marks a conversion by molar mass, not a printed value.

What all share (format): functional
One assay concerns A549. As to the kind of experiment: Cytotoxicity against human A549 cells.
The subject of another assay is MCF7. Description: Cytotoxicity against human MCF7 cells. Particulars: read-out: ED50 (the source's name).
The next assay concerns HT-29. Description: Cytotoxicity against human HT-29 cells. The settings on record: read-out: ED50 (the source's name).

For the compound `CCCCCC[C@H](O)CCC[C@H](O)[C@H]1CC[C@H]([C@H]2CC(O)[C@H]([C@H](O)CCCCCCCCCCCCC3=C[C@H](C)OC3=O)O2)O1` (stereo partly specified) [ANNONIN XVI], in the assay on A549, the ED50 was less than 1 ×10⁻⁸ ug/ml. The EC50 with MCF7 is 1.46 µg/mL (≈ 2.29 µM); in the assay on HT-29, 1.42 µg/mL (≈ 2.22 µM).
Take `COc1cccc2c1C(=O)c1c(O)c3c(c(O)c1C2=O)C[C@@](O)(C(=O)CO)C[C@@H]3O[C@H]1C[C@H](N)[C@H](O)[C@H](C)O1` [DOXORUBICIN]: the ED50 with A549 is listed as 2.08 ×10⁻⁴ ug/ml. Also, the EC50 in the assay with MCF7 was 0.0913 µg/mL (≈ 0.168 µM); in the assay on HT-29, 0.0013 µg/mL (≈ 0.00239 µM).

The values above are taken from ChEMBL document CHEMBL1148179, “Structural revisions of some non-adjacent bis-tetrahydrofuran annonaceous acetogenins” (1993).
